Patent publication US12655116B2, “Substituted isophthalic acid diamides” (Bayer Aktiengesellschaft, priority 2020, dated 2026)

What was measured:
ABUTH [1] = test: Post-emergence herbicidal action against ABUTH; format: in vivo, Abutilon theophrasti; settings: visual assessment about 3 weeks after treatment vs untreated controls
Method in brief: (§1)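 Foliar application at one-leaf stage of formulated test compounds, aqueous spray at 600–800 l/ha with 0.2% wetting agent. Greenhouse, optimal conditions, ~3 weeks; damage scored visually in % relative to untreated plants.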

STEME [2] = test: Post-emergence herbicidal action against STEME; format: in vivo, Stellaria media; settings: 20 g/ha
Method in brief: as §1

VERPE [3] = test: Pre-emergence herbicidal action against VERPE; format: in vivo, Veronica persica; settings: dosage 80 g/ha
Method in brief: (§2)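 Greenhouse pots of sandy loam held seeds covered with soil, onto which the compound was applied before emergence. An aqueous suspension or emulsion of WP or EC was used at 600 to 800 l/ha with 0.2% wetting agent. Percent damage was judged visually at 3 weeks.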

AMARE [4] = test: Post-emergence herbicidal action against AMARE; format: in vivo, Amaranthus retroflexus; settings: 20 g/ha, visual assessment about 3 weeks after treatment, 100% = plants have died, 0% = like control plants
Method in brief: as §1

MATIN [5] = test: Post-emergence herbicidal action against MATIN; format: in vivo, Matricaria inodora
Method in brief: as §1

VIOTR [6] = test: Post-emergence herbicidal action against VIOTR; format: in vivo, Viola tricolor; settings: 20 g/ha
Method in brief: as §1

ECHCG [7] = test: Post-emergence herbicidal action against ECHCG; format: in vivo, Echinochloa crus-galli; settings: dosage 20 g/ha
Method in brief: as §1

VIOTR [8] = test: Pre-emergence herbicidal action against VIOTR; format: in vivo, Viola tricolor
Method in brief: as §2

AMARE [9] = test: Pre-emergence herbicidal action against AMARE; format: in vivo, Amaranthus retroflexus
Method in brief: as §2

AVEFA [10] = test: Pre-emergence herbicidal action against AVEFA; format: in vivo, Avena fatua; settings: 80 g/ha, pre-emergence
Method in brief: as §2

DIGSA = test: Pre-emergence herbicidal action against DIGSA; format: in vivo, Digitaria sanguinalis
Method in brief: as §2

MATIN [11] = test: Pre-emergence herbicidal action against MATIN; format: in vivo, Matricaria inodora
Method in brief: as §2

STEME [12] = test: Pre-emergence herbicidal action against STEME; format: in vivo, Stellaria media
Method in brief: as §2

POLCO = test: Pre-emergence herbicidal action against POLCO; format: in vivo, Polygonum convolvulus
Method in brief: as §2

PHBPU = test: Post-emergence herbicidal action against PHBPU; format: in vivo, Pharbitis purpurea
Method in brief: as §1

AVEFA [13] = test: Post-emergence herbicidal action against AVEFA; format: in vivo, Avena fatua; settings: 20 g/ha, visual assessment about 3 weeks after treatment, 100% = plants have died, 0% = like control plants
Method in brief: as §1

VERPE [14] = test: Post-emergence herbicidal action against VERPE; format: in vivo, Veronica persica; settings: 20 g/ha
Method in brief: as §1

ALOMY = test: Pre-emergence herbicidal action against ALOMY; format: in vivo, Alopecurus myosuroides; settings: 80 g/ha, pre-emergence, scored visually after 3 weeks vs untreated controls (100% = plants have died, 0% = like control plants)
Method in brief: as §2

SETVI = test: Pre-emergence herbicidal action against SETVI; format: in vivo, Setaria viridis; settings: dosage 80 g/ha
Method in brief: as §2

ABUTH [15] = test: Pre-emergence herbicidal action against ABUTH; format: in vivo, Abutilon theophrasti; settings: for Pre-emergence action against ABUTH (herbicidal activity): 80 g/ha, scored visually after 3 weeks vs untreated controls (100% = plants have died, 0% = like control plants); for Pre-emergence action against ABUTH (herbicidal activity in percent): dosage 20 g/ha, scored visually after 3 weeks vs untreated controls, 100% = plants have died, 0% = like control plants
Method in brief: as §2

LOLRI = test: Pre-emergence herbicidal action against LOLRI; format: in vivo, Lolium rigidum; settings: 80 g/ha
Description: Seeds of monocotyledonous and dicotyledonous weed plants and crop plants are laid out in sandy loam soil in wood-fiber pots and covered with soil. The compounds of the invention, formulated in the form of wettable powders (WP) or as emulsion concentrates (EC), are then applied to the surface of the covering soil in the form of an aqueous suspension or emulsion at a water application rate equivalent to 600 to 800 l/ha, with addition of 0.2% wetting agent. After the treatment, the pots are placed in a greenhouse and kept under good growth conditions for the trial plants. The damage to the test plants is scored visually after a test period of 3 weeks by comparison with untreated controls (herbicidal activity in percent (%): 100% activity=the plants have died, 0% activity=like control plants). […] The tables below illustrate, in an illustrative manner, the post-emergence herbicidal action of the compounds of the invention, the herbicidal activity being stated in percent.

ECHCG [16] = test: Pre-emergence herbicidal action against ECHCG; format: in vivo, Echinochloa crus-galli; settings: 80 g/ha
Method in brief: as §2

[17] = 20 g/ha, scored visually after 3 weeks vs untreated controls, 100% = plants have died, 0% = like control plants
[18] = 80 g/ha, scored visually after 3 weeks vs untreated controls (100% = plants have died, 0% = like control plants)

| SMILES | Post-emergence action against ABUTH in % (ABUTH [1]; dosage 20 g/ha) | Pre-emergence action against VERPE in % (VERPE [3]) | Post-emergence action at 20 g/ha against AMARE in % (AMARE [4]) | Post-emergence action against ECHCG in % (ECHCG [7]) | Pre-emergence action against AMARE in % (AMARE [9]; [17]) | Pre-emergence action against AMARE in % (AMARE [9]; [18]) | Pre-emergence action against MATIN in % (MATIN [11]; dosage 80 g/ha) | Post-emergence action against PHBPU in % (PHBPU; dosage 5 g/ha) | Post-emergence action against PHBPU in % (PHBPU; dosage 20 g/ha) | Pre-emergence action against ABUTH (herbicidal activity) (ABUTH [15]) | Pre-emergence action against ABUTH (herbicidal activity in percent) (ABUTH [15]) | further results |
| --- | --- | --- | --- | --- | --- | --- | --- | --- | --- | --- | --- | --- |
| CCn1nnnc1NC(=O)c1ccc(C(F)F)c(C(=O)NC)c1C [Example 2-44] | 90% | 90% | 100% | 80% | 100% | 100% | 100% | 80% | 80% | 100% | 100% | Post-emergence action against ABUTH in % (ABUTH [1]; dosage 5 g/ha): 80%; Post-emergence action against STEME in % (STEME [2]): 80%; Post-emergence action against MATIN in % (MATIN [5]; dosage 5 g/ha): 80%; Post-emergence action against MATIN in % (MATIN [5]; dosage 20 g/ha): 80%; Post-emergence action against VIOTR in % (VIOTR [6]): 80%; Pre-emergence action against VIOTR in % (VIOTR [8]; dosage 20 g/ha): 100%; Pre-emergence action against VIOTR in % (VIOTR [8]; dosage 80 g/ha): 100%; Pre-emergence action against AVEFA in % (AVEFA [10]): 90%; Pre-emergence action against DIGSA in % (DIGSA; dosage 20 g/ha): 100%; Pre-emergence action against DIGSA in % (DIGSA; dosage 80 g/ha): 100%; Pre-emergence action against MATIN in % (MATIN [11]; dosage 20 g/ha): 90%; Pre-emergence action against STEME in % (STEME [12]; dosage 20 g/ha): 90%; Pre-emergence action against STEME in % (STEME [12]; dosage 80 g/ha): 100%; Pre-emergence action against POLCO in % (POLCO; dosage 20 g/ha): 80%; Pre-emergence action against POLCO in % (POLCO; dosage 80 g/ha): 90%; Post-emergence action at 20 g/ha against AVEFA in % (AVEFA [13]): 80%; Post-emergence action against VERPE in % (VERPE [14]): 80%; Pre-emergence action against ALOMY (herbicidal activity) (ALOMY): 80%; Pre-emergence action against SETVI in % (SETVI): 100% |
| Cn1nnnc1NC(=O)c1ccc(C(F)F)c(C(=O)NCC2CCCO2)c1Cl (stereo not shown) [Example 1-159] | 80% | 80% | 100% | 90% | 100% | 100% | 90% | 80% | 80% | 100% | 80% | Pre-emergence action against LOLRI in % (LOLRI): 80%; Pre-emergence action against ECHCG in % (ECHCG [16]): 90% |
